Reference: patent US20240124465A1, “MOLECULES AND METHODS RELATED TO TREATMENT OF DISORDERS ASSOCIATED WITH JAK-2 SIGNALING DYSFUNCTION” (ST. JUDE CHILDREN'S RESEARCH HOSPITAL, priority 2020, published 2024)

Tests used:
Type in all cases: cell-based
[1] = system: JAK2; experiment: Western blot assay, JAK2 protein degradation; conditions: MHH-CALL-4 cells, vehicle control = 100%
Method in brief: (§1)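 Cells (MHH-CALL-4) are washed in cold PBS, lysed in RIPA buffer and cleared at 13,000 g, 4° C. Reduced, denatured protein is run on 4%-12% gels, blotted and imaged by fluorescence; each target signal is divided by ACBT and scaled to vehicle (100%).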

[2] = molecular target: T1, JAK1 (Homo sapiens, UniProt P23458); experiment: Western blot assay, JAK1 protein degradation; conditions: MHH-CALL-4 cells, vehicle control = 100%
T1 construct: endogenous in cells; host or cells: MHH-CALL-4
T1 sequence (P23458 whole entry): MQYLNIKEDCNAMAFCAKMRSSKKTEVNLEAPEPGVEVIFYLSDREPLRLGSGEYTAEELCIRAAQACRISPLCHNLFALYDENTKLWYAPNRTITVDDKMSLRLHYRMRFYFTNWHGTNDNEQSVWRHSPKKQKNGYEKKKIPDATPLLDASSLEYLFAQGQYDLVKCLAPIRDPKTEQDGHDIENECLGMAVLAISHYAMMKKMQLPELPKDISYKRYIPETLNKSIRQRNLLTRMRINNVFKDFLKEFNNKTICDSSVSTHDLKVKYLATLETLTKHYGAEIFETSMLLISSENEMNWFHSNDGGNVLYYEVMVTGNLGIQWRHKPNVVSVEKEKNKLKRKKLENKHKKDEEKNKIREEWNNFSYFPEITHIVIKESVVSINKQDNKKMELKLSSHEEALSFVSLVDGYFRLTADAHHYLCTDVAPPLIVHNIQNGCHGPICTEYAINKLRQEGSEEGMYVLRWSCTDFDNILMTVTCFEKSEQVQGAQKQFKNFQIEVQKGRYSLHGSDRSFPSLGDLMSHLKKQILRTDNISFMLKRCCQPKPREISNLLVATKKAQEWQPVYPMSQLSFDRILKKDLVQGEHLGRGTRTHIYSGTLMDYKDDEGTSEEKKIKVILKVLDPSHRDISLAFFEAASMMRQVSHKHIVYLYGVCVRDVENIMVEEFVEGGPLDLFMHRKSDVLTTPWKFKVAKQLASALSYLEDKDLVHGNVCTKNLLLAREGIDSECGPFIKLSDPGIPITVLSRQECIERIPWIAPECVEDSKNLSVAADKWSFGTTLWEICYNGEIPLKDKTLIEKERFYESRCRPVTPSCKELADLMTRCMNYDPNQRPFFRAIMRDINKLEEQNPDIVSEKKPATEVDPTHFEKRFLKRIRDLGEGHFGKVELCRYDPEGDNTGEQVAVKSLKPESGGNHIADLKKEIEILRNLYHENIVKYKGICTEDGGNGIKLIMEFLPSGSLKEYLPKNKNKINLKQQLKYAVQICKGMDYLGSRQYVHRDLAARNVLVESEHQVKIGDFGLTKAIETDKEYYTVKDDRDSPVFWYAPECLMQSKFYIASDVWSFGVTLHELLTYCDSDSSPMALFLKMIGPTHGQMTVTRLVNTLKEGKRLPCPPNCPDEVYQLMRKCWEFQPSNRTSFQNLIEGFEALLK
Method in brief: as §1

[3] = molecular target: T2, TYK2 (Homo sapiens, UniProt P29597); experiment: Western blot assay, TYK2 protein degradation; conditions: MHH-CALL-4 cells, vehicle control = 100%
T2 construct: endogenous in cells; host or cells: MHH-CALL-4
T2 sequence (P29597 whole entry): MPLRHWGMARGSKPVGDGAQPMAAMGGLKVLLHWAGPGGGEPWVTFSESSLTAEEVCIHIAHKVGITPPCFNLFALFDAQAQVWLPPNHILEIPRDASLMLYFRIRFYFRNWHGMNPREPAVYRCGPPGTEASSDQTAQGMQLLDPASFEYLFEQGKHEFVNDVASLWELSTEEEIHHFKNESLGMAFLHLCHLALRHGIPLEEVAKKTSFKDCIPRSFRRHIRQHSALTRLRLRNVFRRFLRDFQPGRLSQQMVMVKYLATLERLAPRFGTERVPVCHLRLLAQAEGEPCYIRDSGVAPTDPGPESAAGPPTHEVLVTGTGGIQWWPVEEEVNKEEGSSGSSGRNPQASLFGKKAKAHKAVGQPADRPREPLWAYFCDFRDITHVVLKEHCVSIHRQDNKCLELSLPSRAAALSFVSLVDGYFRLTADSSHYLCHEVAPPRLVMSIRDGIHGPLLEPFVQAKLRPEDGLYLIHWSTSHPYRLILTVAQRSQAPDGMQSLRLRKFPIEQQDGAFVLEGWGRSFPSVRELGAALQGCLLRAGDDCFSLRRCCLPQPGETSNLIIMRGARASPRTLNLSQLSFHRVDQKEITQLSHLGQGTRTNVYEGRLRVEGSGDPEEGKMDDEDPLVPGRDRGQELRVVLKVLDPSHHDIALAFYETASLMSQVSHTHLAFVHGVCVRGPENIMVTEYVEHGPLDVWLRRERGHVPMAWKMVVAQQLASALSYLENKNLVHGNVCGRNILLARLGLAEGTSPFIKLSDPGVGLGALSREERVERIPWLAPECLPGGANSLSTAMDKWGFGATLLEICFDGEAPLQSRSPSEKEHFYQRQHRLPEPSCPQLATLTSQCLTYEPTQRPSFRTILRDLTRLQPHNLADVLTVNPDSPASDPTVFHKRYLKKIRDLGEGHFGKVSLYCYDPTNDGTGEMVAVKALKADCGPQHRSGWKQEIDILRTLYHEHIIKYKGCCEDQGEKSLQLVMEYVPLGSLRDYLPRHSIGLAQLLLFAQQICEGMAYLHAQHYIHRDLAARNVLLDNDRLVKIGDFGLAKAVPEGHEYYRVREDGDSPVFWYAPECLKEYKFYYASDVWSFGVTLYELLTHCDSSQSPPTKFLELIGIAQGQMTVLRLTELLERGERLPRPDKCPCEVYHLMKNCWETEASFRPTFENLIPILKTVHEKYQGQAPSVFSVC
Protocol: (§2) Western blot assay: MHH-CALL-4 Cells were washed twice with ice-cold PBS and lysed in RIPA lysis buffer (Sigma) freshly supplemented with Halt™ Protease Inhibitor Cocktail (ThermoFisher) for 15 minutes on ice. The cell pellet was removed by centrifugation at 13,000 g at 4° C. for 15 minutes. Protein concentration was measured by BCA assay (Thermo Fisher Scientific). Proteins were denatured in NuPAGE LDS 4× sample buffer supplemented with reducing agents (Invitrogen). Typically, 10-20 μg of total protein was loaded per lane on a 4%-12% NUPAGE Bis-Tris gradient gel (Invitrogen) and analyzed by standard immunoblotting and imaged using Li—COR Odyssey CLx (LI-COR Biotechnology, Lincoln, NE). To access the protein degradation, the signal of target protein was normalized by the signal of ACBT and the signal of vehicle control was set as 100%. Primary antibodies used were: JAK1 (Cell Signaling #3332S), JAK2 (#3230S), JAK3 (#8827S), TYK2 (#9312S), GSPT1 (#14980S), CRBN (#71810S), IKZF1 (Santa Cruz Biotechnology, SC-398265) and ACBT (Santa Cruz Biotechnology, SC-47778).

[4] = molecular target: T3, JAK3 (Homo sapiens, UniProt P52333); experiment: Western blot assay, JAK3 protein degradation; conditions: MHHCALL4; 100 nM, 24 h; MHH-CALL-4 cells; vehicle control = 100%; read-out: Target Protein Degradation (% remaining at 100 nM, 24 h) JAK3
T3 construct: endogenous in cells; host or cells: MHH-CALL-4
T3 sequence (P52333 1-1124): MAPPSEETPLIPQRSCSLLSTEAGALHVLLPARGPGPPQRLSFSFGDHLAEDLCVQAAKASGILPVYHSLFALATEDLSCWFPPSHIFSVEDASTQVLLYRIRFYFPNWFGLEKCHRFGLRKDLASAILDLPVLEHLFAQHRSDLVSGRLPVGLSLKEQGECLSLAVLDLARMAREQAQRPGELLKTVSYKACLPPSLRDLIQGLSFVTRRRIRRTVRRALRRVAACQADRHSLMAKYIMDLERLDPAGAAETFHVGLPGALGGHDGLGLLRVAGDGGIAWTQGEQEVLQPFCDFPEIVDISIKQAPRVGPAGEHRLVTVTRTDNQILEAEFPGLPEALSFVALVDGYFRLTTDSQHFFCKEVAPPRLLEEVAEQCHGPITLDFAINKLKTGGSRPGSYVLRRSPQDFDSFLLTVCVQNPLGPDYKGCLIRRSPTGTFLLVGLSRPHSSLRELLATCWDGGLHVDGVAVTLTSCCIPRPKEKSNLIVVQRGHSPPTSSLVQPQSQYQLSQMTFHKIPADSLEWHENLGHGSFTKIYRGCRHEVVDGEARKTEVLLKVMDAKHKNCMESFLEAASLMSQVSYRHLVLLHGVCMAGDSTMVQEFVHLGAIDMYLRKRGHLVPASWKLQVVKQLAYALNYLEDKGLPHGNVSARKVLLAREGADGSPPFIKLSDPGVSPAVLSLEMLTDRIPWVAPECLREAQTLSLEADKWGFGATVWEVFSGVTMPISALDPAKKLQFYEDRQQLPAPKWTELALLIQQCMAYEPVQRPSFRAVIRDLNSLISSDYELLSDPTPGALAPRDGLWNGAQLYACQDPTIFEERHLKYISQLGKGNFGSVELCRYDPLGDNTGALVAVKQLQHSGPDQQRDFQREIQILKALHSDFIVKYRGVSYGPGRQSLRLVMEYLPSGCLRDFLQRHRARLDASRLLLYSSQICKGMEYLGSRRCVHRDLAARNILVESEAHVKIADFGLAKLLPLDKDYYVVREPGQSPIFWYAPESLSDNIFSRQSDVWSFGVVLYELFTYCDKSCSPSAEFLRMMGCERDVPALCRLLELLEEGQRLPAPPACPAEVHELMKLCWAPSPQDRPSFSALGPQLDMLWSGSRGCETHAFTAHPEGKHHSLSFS
Method in brief: as §1

[5] = system: MHH-CALL-4 cells; experiment: Cytotoxicity assay (resazurin, 72 hours); parameters: AUC: unit not given beside the values; conditions: for EC50: MHHCALL4, resazurin; for AUC: area under the dose-response curve
Method in brief: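 Cells grown in RPMI1640 with 10% FBS, 2×10⁵ per well, were exposed to pin-transferred compounds in triplicate for 72 h at 37 °C, 5% CO2. Viability was read after 4 h resazurin incubation. Dose-response AUC was calculated per compound; selected data were fitted by non-linear regression.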

[6] = molecular target: T4, IKZF1 (Homo sapiens, UniProt Q13422); experiment: Western blot assay, IKZF1 neosubstrate degradation; conditions: MHH-CALL-4 cells, vehicle control = 100%
T4 construct: endogenous in cells; host or cells: MHH-CALL-4
T4 sequence (Q13422 whole entry): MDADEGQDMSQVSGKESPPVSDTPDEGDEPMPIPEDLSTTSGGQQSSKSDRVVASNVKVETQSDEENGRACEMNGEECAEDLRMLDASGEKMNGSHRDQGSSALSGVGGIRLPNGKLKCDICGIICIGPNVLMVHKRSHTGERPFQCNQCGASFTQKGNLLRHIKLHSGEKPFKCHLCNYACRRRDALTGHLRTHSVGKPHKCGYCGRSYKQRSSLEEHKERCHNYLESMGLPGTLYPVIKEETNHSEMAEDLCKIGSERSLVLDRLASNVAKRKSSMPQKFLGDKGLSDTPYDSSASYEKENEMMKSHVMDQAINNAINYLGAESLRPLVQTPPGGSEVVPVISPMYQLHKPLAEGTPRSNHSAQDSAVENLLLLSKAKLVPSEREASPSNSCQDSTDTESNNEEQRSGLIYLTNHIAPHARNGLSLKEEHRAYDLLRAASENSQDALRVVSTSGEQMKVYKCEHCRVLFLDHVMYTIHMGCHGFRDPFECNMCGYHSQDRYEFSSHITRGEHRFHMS
Protocol: as §2

[7] = molecular target: T5, GSPT1 (Homo sapiens, UniProt P15170); experiment: Western blot assay, GSPT1 neosubstrate degradation; conditions: MHHCALL4; 100 nM, 24 h; MHH-CALL-4 cells; vehicle control = 100%
T5 construct: endogenous in cells; host or cells: MHH-CALL-4
T5 sequence (P15170 whole entry): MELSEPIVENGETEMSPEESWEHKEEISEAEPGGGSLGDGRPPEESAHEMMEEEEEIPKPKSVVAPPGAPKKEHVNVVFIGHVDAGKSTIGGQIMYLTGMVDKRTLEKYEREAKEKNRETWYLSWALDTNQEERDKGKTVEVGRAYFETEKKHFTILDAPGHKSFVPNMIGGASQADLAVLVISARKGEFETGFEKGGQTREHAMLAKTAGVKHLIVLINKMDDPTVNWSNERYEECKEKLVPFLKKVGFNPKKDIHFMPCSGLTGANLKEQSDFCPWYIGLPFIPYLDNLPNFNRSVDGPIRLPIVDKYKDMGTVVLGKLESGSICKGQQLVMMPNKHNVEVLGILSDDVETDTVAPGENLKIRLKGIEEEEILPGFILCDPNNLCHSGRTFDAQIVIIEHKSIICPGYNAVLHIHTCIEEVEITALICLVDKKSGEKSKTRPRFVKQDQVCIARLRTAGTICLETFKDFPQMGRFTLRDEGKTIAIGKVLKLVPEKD
Method in brief: as §1

Row | Target Protein Degradation (% remaining at 100 nM, 24 h) JAK1 [2] [% remaining] | Target Protein Degradation (% remaining at 100 nM, 24 h) TYK2 [3] [% remaining] | remaining activity at 0.1 µM [4] [%] | Neosubstrate Degradation (% remaining at 100 nM, 24 h) IKZF1 [6] [% remaining] | remaining activity at 0.1 µM [7] [%] | SMILES | Target Protein Degradation (% remaining at 100 nM, 24 h) JAK2 [1] [% remaining] | EC50 [5] [nM] | AUC [5]
1 | 86 | 118 | 46 | 87 | 109 | CCS(=O)(=O)N1CC(CC#N)(n2cc(-c3nc(Nc4ccc(C(=O)NCCCN5CCN(c6ccc(C7CCC(=O)NC7=O)cc6)CC5)cc4)nc4[nH]ccc34)cn2)C1 (centres unmarked) [Compound 10] | 25 | 2580 | 114
2 | 105 | 88 | 102 | 96 | 110 | CCS(=O)(=O)N1CC(CC#N)(n2cc(-c3nc(Nc4ccc(C(=O)NCCNC(=O)COc5ccc(C6CCC(=O)NC6=O)cc5)cc4)nc4[nH]ccc34)cn2)C1 (centres unmarked) [Compound 17] | 120 | > 784 | –
3 | 83 | 122 | 80 | 105 | 117 | CCS(=O)(=O)N1CC(CC#N)(n2cc(-c3nc(Nc4ccc(C(=O)NCCCNC(=O)COc5ccc(C6CCC(=O)NC6=O)cc5)cc4)nc4[nH]ccc34)cn2)C1 (centres unmarked) [Compound 18] | 82 | > 812 | 95
